Data on one molecule can be found in patent US20170245538A1, “SOLID DISPERSION OF AMIDE FLAVOR COMPOUNDS” (Firmenich SA, priority 2014, published 2017).

A short description of this data set: dissolution kinetics in water followed on-line by UV/Vis spectroscopy. The data set is classed as physicochemical. Particulars: 20 mg pure compound in 1L milli Q water at 60° C. The protocol:
The dissolution kinetics of example 4 in water was tested. A final concentration of (E)-3-(3,4-dimethoxyphenyl)-N-(4-methoxyphenethyl)acrylamide of 20 ppm dissolved in water was targeted. Eighty (80) mg of a solid dispersion of (E)-3-(3,4-dimethoxyphenyl)-N-(4-methoxyphenethyl)acrylamide and gum arabic was dispersed in 1L of milli Q water heated at 60° C. The solution was stirred mechanically by the means of a paddle stirrer at 200 rpm. The dissolution process was followed on-line by monitoring the UV signal of dissolved (E)-3-(3,4-dimethoxyphenyl)-N-(4-methoxyphenethyl)acrylamide with UV/Vis spectroscopy using a fiber optic probe from Ocean Optics. The powder was entirely dissolved after 2 minutes. The maximum dissolution rate during the process was 28 ppm/minute.
Comparative example: (E)-3-(3,4-dimethoxyphenyl)-N-(4-methoxyphenethyl)acrylamide pure. A final concentration of (E)-3-(3,4-dimethoxyphenyl)-N-(4-methoxyphenethyl)acrylamide of 20 ppm dissolved in water was targeted. Twenty (20) mg of the pure (E)-3-(3,4-dimethoxyphenyl)-N-(4-methoxyphenethyl)acrylamide were dispersed in 1L of milli Q water heated at 60° C. The dissolution process yielded 50% of the target concentration of 20 ppm (10 ppm) after 78 minutes. The target concentration could not be achieved after 6 hours. The concentration of dissolved (E)-3-(3,4-dimethoxyphenyl)-N-(4-methoxyphenethyl)acrylamide after 6 hours was 15 ppm (75% of target).

For `COc1ccc(CCNC(=O)/C=C/c2ccc(OC)c(OC)c2)cc1` [(E)-3-(3,4-dimethoxyphenyl)-N-(4-methoxyphenethyl)acrylamide], the “time to 50% of the target concentration of 20 ppm (10 ppm)” value stood at 78 min. Further, for the setting “after 6 hours”, the “concentration of dissolved compound after 6 hours” value is recorded as 15 ppm. For the same molecule, the “dissolved compound after 6 hours as % of target” value (after 6 hours, target 20 ppm) is on record as 75 % of target. Moreover, under “target could not be achieved”, the “time to achieve the target concentration (20 ppm)” value was over 6 h.
